Here are results for eight compounds from US9631041B2, “PH-sensitive compositions for delivery of beta lapachone and methods of use” (The Board of Regents of the University of Texas System, priority 2010, dated 2017).

The structures appear in SMILES notation. In brackets after ≈: the same amount, converted by molar mass. Like-named read-outs stand apart in the source and are kept apart here.

Data set [1] can be described thus: Prodrug hydrolysis / conversion into β-lap by HPLC at different pH. It counts as physicochemical. Particulars: for pH sensitivity of hydrolysis: hydrolysis study at neutral pH and acidic pH; for half-life at 5 μmol/mL: acetonitrile/buffered solution (30:70, v/v). The protocol: The HPLC system consisted of a quaternary pump, a vacuum degasser, an autosampler, a C18 column (4.6 mm×250 mm, Agilent, CA) and UV detector at 254 nm (Perkin Elmer, MA, USA). The mobile phase was acetonitrile/water (60:40) and a flow rate of 1.0 mL/min was used.

The subject of data set [2] is A549 cells. Put plainly: Cytotoxicity assay, long-term relative survival by DNA content. It counts as cell-based, human. How it is done:
Long-term, relative survival was assessed based on DNA content as described (Pink, J. J., Planchon, S. M., Tagliarino, C., Varnes, M. E., Siegel, D., and Boothman, D. A. (2000) NAD(P)H:Quinone oxidoreductase activity is the principal determinant of beta-lapachone cytotoxicity. J. Biol. Chem. 275, 5416-24). Briefly, A549 cells were seeded at 5×10^3/well in 48-well dishes a day before experiments. Cells were then mock-treated or exposed to various doses of β-lap or β-lap prodrug (6) conjugated micelles for preferred time in the presence or absence of dicoumoral (40 μM) as indicated. Subsequently, cells were replenished with drug-free medium and allowed to grow for 5-7 days until control cells reached ˜100% confluence. DNA content was determined by Hoechst 33258 staining and fluorescence detection using a plate reader (Perkin-Elmer, Boston, Mass.). Results were graphed as means±SE from sixtuplicate. Independent experiments were repeated at least three times. DIC is a specific NQO1 inhibitor and used to block β-Lap induced cytotoxicity.

Data set [3] concerns the target NQO1 (Homo sapiens, UniProt P15559). Particulars: upon NQO1 bioactivation, futile cycle; cited from earlier work.
The conditions of data set [4]: inclusion complex with hydroxylpropyl β-cyclodextrin; cited from earlier work.
For data set [5] the following is noted: free drug; cited from earlier work.

Sequence of NQO1 (P15559 whole entry): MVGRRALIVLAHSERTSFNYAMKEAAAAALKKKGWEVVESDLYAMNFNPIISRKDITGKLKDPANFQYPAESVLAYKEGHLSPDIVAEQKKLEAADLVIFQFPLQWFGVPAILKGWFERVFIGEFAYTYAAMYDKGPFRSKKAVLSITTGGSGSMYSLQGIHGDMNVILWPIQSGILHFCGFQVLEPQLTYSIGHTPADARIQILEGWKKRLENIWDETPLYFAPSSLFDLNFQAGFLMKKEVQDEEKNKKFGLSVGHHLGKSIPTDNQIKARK

On to `CC1(C)CCC2=C(O1)c1ccccc1[C@]1(OC[C@@](C)(CO)CO1)C2=O` [prodrug (2), (2′r,5′r)-5′-(hydroxymethyl)-2,2,5′-trimethyl-3,4-dihydrospiro[benzo[h]chromene-6,2′-[1,3]dioxan]-5(2H)-one], for which the “pH sensitivity of hydrolysis” value in data set [1] was “not pH-sensitive”.
As for `CC1(C)CCc2c(c3ccccc3c3nc(CCCCO)oc23)O1` [(4), 4-(6,6-dimethyl-5,6-dihydro-4H-benzo[7,8]chromeno[6,5-d]oxazol-2-yl)butan-1-ol], the “pH sensitivity of hydrolysis” value in data set [1] is recorded as “resisted acid catalyzed hydrolysis”.
Still for that read-out and setting: in the case of `Cc1cc2nc3c(oc-2cc1=O)c1c(c2ccccc23)OC(C)(C)CC1` [(5), 3,3,11-trimethyl-2,3-dihydrobenzo[a]pyrano[2,3-c]phenoxazin-12(1H)-one] it was “resisted acid catalyzed hydrolysis”; in that of `CC1(C)CCC2=C(O1)c1ccccc1[C@]1(OC[C@](C)(CO)CO1)C2=O` [prodrug (3), (2′s,5′s)-5′-(hydroxymethyl)-2,2,5′-trimethyl-3,4-dihydrospiro[benzo[h]chromene-6,2′-[1,3]dioxan]-5(2H)-one], “not pH-sensitive”.
As to `CC1(C)CCC2=C(O1)c1ccccc1C(=O)C2=O` [β-lap, β-Lapachone], the “cytotoxicity in the presence of dicoumarol (NQO1 inhibitor)” value in data set [2] (A549, dicoumarol 40 μM) is recorded as “blocked”. Further, the “concentration sufficient to reach maximal cytotoxicity” value in data set [2] (A549 cells, within 2 hours) was 5 µM. Moreover, the “moles of H2O2 and other ROS produced per mole of β-lap” value in data set [3] is 120 mol. Also, the binding constant in data set [4] is 1100 M⁻¹. In addition, in data set [5], the aqueous solubility was 38 µg/mL (≈ 157 µM).
In the case of `Nc1ccc(N2C(=O)C=CC2=O)cc1` [linker, N-(4-Aminophenyl)maleimide], the toxicity result in data set [2] (A549, treatment up to 24 h) is listed as “No toxicity”.
As for `CC1(C)CCC2=C(O1)c1ccccc1/C(=N\c1ccc(N3C(=O)C=CC3=O)cc1)C2=O` [prodrug (6), (E)-1-(4-(2,2-dimethyl-5-oxo-3,4-dihydro-2H-benzo[h]chromen-6(5H)-ylideneamino)phenyl)-1H-pyrrole-2,5-dione], the half-life at 5 μmol/mL in data set [1] (pH 5, pH 5.0, room temperature, read-out: half-life of conversion into β-lap, t1/2 (pH 5.0) (converted)) is 1.1 h; in data set [1] (pH 7.4, pH 7.4, read-out: half-life for hydrolysis, t1/2 (pH 7.4)) it was more than 90 h. The “pH sensitivity of hydrolysis” value in data set [1] was “inspiring pH sensitivity both at neutral and at acidic conditions”. Further, the “prodrug converted into β-Lap” value in data set [1] (pH 5.0, after 1.5 hr) is “more than 50%”; in data set [1] (pH 6.5, after 24 hrs) it was “about 30%”; in data set [1] (pH 7.4, after 24 hrs), approximately 3.3%. In data set [1] (pH 5.0, after 10 hrs), the prodrug hydrolyzed result is “all prodrug (6) was hydrolyzed”. Further, in data set [1] (pH 5.0 buffer, 5 mins), the “β-Lap released from prodrug” value was “only a trace”.
Turning to `CC(=O)N/N=C1\C(=O)C2=C(OC(C)(C)CC2)c2ccccc21` [prodrug (1), (Z)—N′-(2,2-dimethyl-5-oxo-3,4-dihydro-2H-benzo[h]chromen-6(5H)-ylidene)acetohydrazide], the “pH sensitivity of hydrolysis” value in data set [1] was “not pH-sensitive”.

The term aqueous solubility denotes the dissolved amount per volume that the medium holds.
